Measured values from article PMC10815238, “New N-Terminal Fatty-Acid-Modified Melittin Analogs with Potent Biological Activity” (International Journal of Molecular Sciences, 2024).
≈ marks a conversion by molar mass, not a printed value.

What was measured:
[1] = system: Bacillus cereus (B. cereus) CVCC 4101; format: cell-based; settings: NB medium, 37 °C, 18 h, three independent measurements
Procedure: (§1) MIC was determined using the broth microdilution method with minor modification. In brief, bacteria (S. aureus ATCC 43300, E. faecalis ATCC 29212, E. coli ATCC 25922, P. aeruginosa ATCC 27853, L. monocytogenes CVCC 3764, B. cereus CVCC 4101, S. Castellani CGMCC 1.1869, and the multidrug-resistant E. coli strain) were cultured in nutrient broth (NB) medium (Macklin, Shanghai, China) to the logarithmic phase and diluted to 1 × 10^6 colony forming units (CFUs)/mL. The MDLs were dissolved to a final concentration of 256~0.25 μg/mL in NB medium using two-fold dilutions. A total of 50 μL of different concentrations of the MDL solutions and an equal volume of bacterial suspension were added to a 96-well plate, which was then incubated at 37 °C for 18 h. The minimum concentrations of the MDLs with no visible growth of bacteria were defined as the corresponding MICs. Media containing bacteria without the MDLs were set as the negative control. Each measurement was performed independently three times.

[2] = system: Enterococcus faecalis (E. faecalis) ATCC 29212; format: cell-based; settings: NB medium, 37 °C, 18 h, three independent measurements
Procedure: as §1

[3] = system: Shigella castellani (S. castellani) CGMCC 1.1869; format: cell-based; settings: NB medium, 37 °C, 18 h, three independent measurements
Procedure: as §1

[4] = system: Multidrug-Resistant Escherichia coli (E. coli) Strain; format: cell-based; settings: NB medium, 37 °C, 18 h, three independent measurements
Text: The standard strains of S. aureus ATCC 43300, E. faecalis ATCC 29212, E. coli ATCC 25922, and P. aeruginosa ATCC 27853 were obtained from the American Type Culture Collection (ATCC). L. monocytogenes CVCC 3764 and B. cereus CVCC 4101 were obtained from the National Center for Veterinary Culture Collection (CVCC). S. castellani CGMCC 1.1869 was obtained from the China General Microbiological Culture Collection Center. The multidrug-resistant strain Escherichia coli was obtained from the research base of the Chongqing Academy of Animal Sciences (Chongqing, China). All strains were cultured in nutrient broth overnight at 37 °C to a logarithmic growth phase before each experiment.
MIC was determined using the broth microdilution method with minor modification. In brief, bacteria (S. aureus ATCC 43300, E. faecalis ATCC 29212, E. coli ATCC 25922, P. aeruginosa ATCC 27853, L. monocytogenes CVCC 3764, B. cereus CVCC 4101, S. Castellani CGMCC 1.1869, and the multidrug-resistant E. coli strain) were cultured in nutrient broth (NB) medium (Macklin, Shanghai, China) to the logarithmic phase and diluted to 1 × 10^6 colony forming units (CFUs)/mL. The MDLs were dissolved to a final concentration of 256~0.25 μg/mL in NB medium using two-fold dilutions. […]

swine erythrocytes = experiment: Hemolytic activity assay; format: cell-based; settings: swine erythrocytes in PBS, 1 h, 37 °C; concentration more than 4 μg/mL
Procedure: The hemolytic activity of the MDLs was evaluated as described previously with minor modification. Swine erythrocytes were collected by centrifugation at 1000 rpm for 5 min, washed three times, and suspended to a final concentration of 8% vol/vol with PBS (Macklin, Shanghai, China). Equal volumes of erythrocyte suspension and the MDLs solutions at various concentrations were mixed in a 96-well plate and incubated for 1 h at 37 °C. After centrifugation at 1000 rpm for 10 min, the supernatant was transferred to a 96-well plate. The supernatant optical density (OD) was measured at 490 nm using a microplate reader (BioTek, Winooski, VT, USA). Untreated erythrocytes and erythrocytes treated with 1% Triton X-100 (Merck, Darmstadt, Germany) were employed as the negative and positive controls, respectively. The hemolysis percentage was calculated using the following equation: Hemolysis rate%=OD490(lipopeptide)−OD490(PBS)/OD490(1% Triton X-100)−OD490(PBS)×100%

human red blood cells = settings: cited from earlier work
Procedure: (§2) Despite its multiple potential biological activities, the applications for melittin are limited due to its severe hemolytic activity and low proteolytic stability. Melittin results in 50% hemolysis of human red blood cells at a concentration of 2 μM and 100% at 7 μM [19].

trypsin = settings: cited from earlier work
Procedure: as §2

pepsin = settings: after 2 h of incubation; cited from earlier work
Text: Poor protease stability is one of the main factors that has limited melittin’s clinical application.

[5] = fetal bovine serum, human serum, and human plasma; cited from earlier work
Text: However, binding with serum albumin would weaken the detection of the free MDLs and reduce their antibacterial activity.

[6] = Hydrophobicity assay (RP-HPLC retention time); format: physicochemical; settings: chromatographic, ChromCore120 C18 column 4.6 x 250 mm 5 μm; 0.1 mg/mL in deionized water; A 0.1% TFA in water, B 0.1% TFA in acetonitrile; 5% B to 90% B over 30 min; 1 mL/min; UV 220 nm; three independent experiments
Text: The hydrophobicity, amphipathicity, and positive charge distribution of lipopeptides are crucial for their antimicrobial activities. Among these, hydrophobicity has been deemed essential for promoting a hydrophobic interaction with the lipid bilayer, leading to membrane disruption, cytoplasm leakage, and eventual cell death. Lipopeptides with different peptide sequences and chain lengths usually show different hydrophobicities, generating different RTs in the RP-HPLC analysis. The more hydrophobic the lipopeptide, the longer the RT on the column.
Each MDL was dissolved and diluted to 0.1 mg/mL in deionized water (obtained in-house) and then subjected to RP-HPLC on a ChromCore120 C18 column (4.6 × 250 mm, 5 μm) (NanoChrom, Suzhou, China) using 0.1% trifluoroacetic acid (TFA) (Macklin, Shanghai, China) in water as solvent A and 0.1% TFA in acetonitrile (Merck, Darmstadt, Germany) as solvent B. The elution gradient was as follows: 5% B to 90% B over 30 min, 90% B maintained for 2 min, and 90% B to 5% B over 1 min. The flow rate was 1 mL/min and measurements were taken at 220 nm. The retention time was recorded for each MDL.

[7] = CD measurements of secondary structure; format: physicochemical; settings: 0.5 mg/mL, 25 °C
Procedure: The CD spectra of the MDLs were measured at 25 °C on a Chirascan spectrometer (Applied Photophysics, Surrey, UK) using a quartz cell with a 1.0 mm path length, recording from 180 to 260 nm. A scanning speed of 50 nm/min was used and the bandwidth was 1 nm. The optical path and slit width were 0.1 cm and 0.1 nm, respectively. […], 50% TFE (Macklin, Shanghai, China) was used to mimic the hydrophobic condition of the microbial membrane, and 25 mM SDS (Macklin, Shanghai, China) micelles were used to mimic the negatively charged prokaryotic membrane. The observed ellipticity was converted to molar ellipticity using the following equation: θ=θobs(MRW/10×c×l) where [θ] is the molar ellipticity (deg·cm^2·dmol^−1), θobs is the observed ellipticity corrected for the buffer at a given wavelength (mdeg), MRW is the mean residual molecular weight (molecular weight/number of amino acids), c is the peptide concentration (mg/mL), and l is the path length (cm). Assuming lipopeptides were a two-state model, the percentage in the α-helix structure of the MDLs was calculated using the following equation: α-helical content=−([θ]222 +2000)/30,000×100%

E. coli ATCC 25922 = experiment: Salt sensitivity (MIC in the presence of physiological salts); format: cell-based, Escherichia coli; parameters: key to MIC, NaCl / MIC, KCl / MIC, MgCl2: MIC in μg/mL (two-fold dilutions 256 to 0.25 μg/mL); settings: for MIC, MgCl2: 1 mM MgCl2, unit not given in Table 4; for MIC, FeCl3: 4 mM FeCl3, unit not given in Table 4; for MIC, KCl: 4.5 mM KCl; for MIC, KCl / MIC, NaCl: unit not given in Table 4; for MIC, NaCl: 150 mM NaCl; for MIC, Control: no added salt, unit not given in Table 4 (Table 3 MIC in μg/mL)
Procedure: as §1
(§3) This was carried out in triplicate and tested at least twice.

S. aureus ATCC 43300 = experiment: as above; format: cell-based, Staphylococcus aureus; parameters: key: MIC in μg/mL (two-fold dilutions 256 to 0.25 μg/mL); settings: for MIC, MgCl2: 1 mM MgCl2, unit not given in Table 4; for MIC, FeCl3: 4 mM FeCl3, unit not given in Table 4; for MIC, KCl: 4.5 mM KCl; for MIC, KCl / MIC, NaCl: unit not given in Table 4; for MIC, NaCl: 150 mM NaCl; for MIC, Control: no added salt, unit not given in Table 4 (Table 3 MIC in μg/mL)
Procedure: as §1, §3

Structure (SMILES)	RT, Min (RP-HPLC retention time, measure of hydrophobicity) [6] [min]	α-Helix, % ([7]; 25 mM SDS) [%]	α-Helix, % ([7]; 50% TFE) [%]	α-Helix, % ([7]; PBS Buffer) [%]	MIC, MgCl2 (E. coli ATCC 25922)	MIC, FeCl3 (E. coli ATCC 25922)	MIC, KCl (E. coli ATCC 25922)	MIC, NaCl (E. coli ATCC 25922)	MIC, Control (E. coli ATCC 25922)	MIC, MgCl2 (S. aureus ATCC 43300)	MIC, FeCl3 (S. aureus ATCC 43300)	MIC, KCl (S. aureus ATCC 43300)	β-Fold, % ([7]; 25 mM SDS) [%]	β-Fold, % ([7]; 50% TFE) [%]	β-Fold, % ([7]; PBS Buffer) [%]	MIC, NaCl (S. aureus ATCC 43300)	MIC, Control (S. aureus ATCC 43300)	further results
CC[C@H](C)[C@H](NC(=O)CN)C(=O)NCC(=O)N[C@@H](C)C(=O)N[C@H](C(=O)N[C@@H](CC(C)C)C(=O)N[C@@H](CCCCN)C(=O)N[C@H](C(=O)N[C@@H](CC(C)C)C(=O)N[C@H](C(=O)N[C@H](C(=O)NCC(=O)N[C@@H](CC(C)C)C(=O)N1CCC[C@H]1C(=O)N[C@@H](C)C(=O)N[C@@H](CC(C)C)C(=O)N[C@H](C(=O)N[C@@H](CO)C(=O)N[C@@H](Cc1c[nH]c2ccccc12)C(=O)N[C@H](C(=O)N[C@@H](CCCCN)C(=O)N[C@@H](CCCNC(=N)N)C(=O)N[C@@H](CCCCN)C(=O)N[C@@H](CCCNC(=N)N)C(=O)N[C@@H](CCC(N)=O)C(=O)N[C@@H](CCC(N)=O)C(N)=O)[C@@H](C)CC)[C@@H](C)CC)[C@@H](C)O)[C@@H](C)O)C(C)C)C(C)C [Mel, Melittin]																		MIC [1]: 16 µg/mL (≈ 5.62 µM); MIC [2]: 16 µg/mL (≈ 5.62 µM); MIC [3]: 32 µg/mL (≈ 11.2 µM); MIC [4]: 64 µg/mL (≈ 22.5 µM); hemolysis rate (swine erythrocytes): rapidly increased; concentration resulting in 50% hemolysis (human red blood cells): 2 µM; concentration resulting in 100% hemolysis (human red blood cells): 7 µM; melittin left after incubation with trypsin (trypsin; after 60 min of incubation): almost no melittin is left; digestion by trypsin (trypsin): digested rapidly; degradation by pepsin (pepsin): entirely degraded; stability in serum and plasma [5]: stable
CCCCCC(=O)NCC(=O)N[C@H](C(=O)NCC(=O)N[C@@H](C)C(=O)N[C@H](C(=O)N[C@@H](CC(C)C)C(=O)N[C@@H](CCCCN)C(=O)N[C@H](C(=O)N[C@@H](CC(C)C)C(=O)N[C@H](C(=O)N[C@H](C(=O)NCC(=O)N[C@@H](CC(C)C)C(=O)N1CCC[C@H]1C(=O)N[C@@H](C)C(=O)N[C@@H](CC(C)C)C(=O)N[C@H](C(=O)N[C@@H](CO)C(=O)N[C@@H](Cc1c[nH]c2ccccc12)C(=O)N[C@H](C(=O)N[C@@H](CCCCN)C(=O)N[C@@H](CCCNC(=N)N)C(=O)N[C@@H](CCCCN)C(=O)N[C@@H](CCCNC(=N)N)C(=O)N[C@@H](CCC(N)=O)C(=O)N[C@@H](CCC(N)=O)C(N)=O)[C@@H](C)CC)[C@@H](C)CC)[C@@H](C)O)[C@@H](C)O)C(C)C)C(C)C)[C@@H](C)CC [Peptide C6-Mel]	15.567 ± 0.006	18.4	22.4	6.5	16	16	8	4	4	8	8	2						
CC[C@H](C)[C@H](NC(=O)CNC(C)=O)C(=O)NCC(=O)N[C@@H](C)C(=O)N[C@H](C(=O)N[C@@H](CC(C)C)C(=O)N[C@@H](CCCCN)C(=O)N[C@H](C(=O)N[C@@H](CC(C)C)C(=O)N[C@H](C(=O)N[C@H](C(=O)NCC(=O)N[C@@H](CC(C)C)C(=O)N1CCC[C@H]1C(=O)N[C@@H](C)C(=O)N[C@@H](CC(C)C)C(=O)N[C@H](C(=O)N[C@@H](CO)C(=O)N[C@@H](Cc1c[nH]c2ccccc12)C(=O)N[C@H](C(=O)N[C@@H](CCCCN)C(=O)N[C@@H](CCCNC(=N)N)C(=O)N[C@@H](CCCCN)C(=O)N[C@@H](CCCNC(=N)N)C(=O)N[C@@H](CCC(N)=O)C(=O)N[C@@H](CCC(N)=O)C(N)=O)[C@@H](C)CC)[C@@H](C)CC)[C@@H](C)O)[C@@H](C)O)C(C)C)C(C)C [Peptide C2-Mel]	12.247 ± 0.021	20.9	26.5	6	32	32	16	16		16	16	4	19.9	17.8	32.8	4	4	
CCCC(=O)NCC(=O)N[C@H](C(=O)NCC(=O)N[C@@H](C)C(=O)N[C@H](C(=O)N[C@@H](CC(C)C)C(=O)N[C@@H](CCCCN)C(=O)N[C@H](C(=O)N[C@@H](CC(C)C)C(=O)N[C@H](C(=O)N[C@H](C(=O)NCC(=O)N[C@@H](CC(C)C)C(=O)N1CCC[C@H]1C(=O)N[C@@H](C)C(=O)N[C@@H](CC(C)C)C(=O)N[C@H](C(=O)N[C@@H](CO)C(=O)N[C@@H](Cc1c[nH]c2ccccc12)C(=O)N[C@H](C(=O)N[C@@H](CCCCN)C(=O)N[C@@H](CCCNC(=N)N)C(=O)N[C@@H](CCCCN)C(=O)N[C@@H](CCCNC(=N)N)C(=O)N[C@@H](CCC(N)=O)C(=O)N[C@@H](CCC(N)=O)C(N)=O)[C@@H](C)CC)[C@@H](C)CC)[C@@H](C)O)[C@@H](C)O)C(C)C)C(C)C)[C@@H](C)CC [Peptide C4-Mel]	13.704 ± 0.005	19.3	20.7	6.1	32	32	16	8	8	16	16	4	23.8	25.4	33.7	2	2	
